The target of one assay is T1, DnaA (wtDnaA) (Escherichia coli, UniProt P03004, H202Y).
T1 sequence (P03004 1-467 H202Y): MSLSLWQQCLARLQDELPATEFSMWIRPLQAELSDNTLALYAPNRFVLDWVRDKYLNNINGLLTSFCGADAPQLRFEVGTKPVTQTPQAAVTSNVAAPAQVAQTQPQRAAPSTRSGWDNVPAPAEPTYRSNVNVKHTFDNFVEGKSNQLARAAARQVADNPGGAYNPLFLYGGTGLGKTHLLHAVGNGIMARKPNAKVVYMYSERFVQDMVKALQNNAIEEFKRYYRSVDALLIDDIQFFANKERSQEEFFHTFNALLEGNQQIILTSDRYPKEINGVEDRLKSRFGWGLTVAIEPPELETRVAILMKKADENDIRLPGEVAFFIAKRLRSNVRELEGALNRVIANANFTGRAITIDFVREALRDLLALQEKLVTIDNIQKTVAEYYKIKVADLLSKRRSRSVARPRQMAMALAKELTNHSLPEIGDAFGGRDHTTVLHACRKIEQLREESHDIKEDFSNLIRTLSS
Put plainly: ATP binding assay.

The target of another assay is Hda (E. coli) (UniProt P69931). Put plainly: SEC.

In the case of `Nc1ncnc2c1ncn2[C@@H]1O[C@H](COP(=O)(O)OP(=O)(O)OP(=O)(O)O)[C@@H](O)[C@H]1O` [ATP], on DnaA (wtDnaA), binding was characterised by a dissociation constant (Kd) of 360 nM. This lies in the sub-micromolar range.
As for “Hda (from UniProt P69931 1-233) (natural protein)”, the stoichiometry N with Hda (E. coli) was 2.

The values above are taken from PMC3905854 (Nucleic Acids Research, 2013).
